Measured values from patent US20250066389A1, “HETEROCYCLIC AMIDES AND METHODS OF USING THE SAME” (Rgenta Therapeutics, Inc., priority 2021, published 2025).
pIC50: −log10 of the molar value. Where a name gives a salt, the structure may show the parent alone.

Test system: PMS1
Experiment: Mini-Gene Reporter Assay—PMS1 (firefly luciferase mini-gene reporter transiently transfected into HEK293 cells)
Format: cell-based
Conditions: Homo sapiens, mini-gene firefly luciferase reporter in HEK293 cells; for activation at 5 µM: read-out: PMS1 % Effect at 5 uM
In short: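 Luminescence (RLU) read-out of exon inclusion: compound dilutions, tested in duplicate, act on transiently transfected HEK293 cells carrying a firefly luciferase reporter fused downstream of the PMS1 skipped-exon region. Potency derived by Levenberg-Marquardt curve fitting, with percent effect at 5 μM.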

pIC50	SMILES	activation at 5 µM
> 6.00	COc1cc2nc(C)cn2cc1C(=O)Nc1ccc(N2CCCNCC2)cc1F [Compound 175, N-(4-(1,4-diazepan-1-yl)-2-fluorophenyl)-7-methoxy-2-methylimidazo[1,2-a]pyridine-6-carboxamide]	–
5.00 to 6.00	CCOc1nc2nc(C)cn2cc1C(=O)Nc1ccc(N2CCNCC2)nn1 [Compound 732, 7-ethoxy-2-methyl-N-(6-(piperazin-1-yl)pyridazin-3-yl)imidazo[1,2-a]pyrimidine-6-carboxamide formate]	–
–	CCOc1cn2nc(C)cc2cc1C(=O)Nc1cnc(N(C)C[C@H]2CCCN2)nc1 [Compound 575]	< 50%
–	CCOc1cc2nn(C)cc2cc1C(=O)Nc1cnc(N[C@@H]2CCNC2)cn1 [Compound 376]	> 75%
–	CCOc1cc2nc(C)cn2cc1C(=O)Nc1cnc(N2CCC(N)CC2)cn1 [Compound 695]	> 75%
–	CCOc1cn2nc(C)cc2cc1C(=O)Nc1cnc(N2CCC3(CCCN3)CC2)cn1 [Compound 530]	> 75%
–	CCOc1cc2nn(C)cc2cc1C(=O)Nc1cnc(NCC[C@@H]2C[C@H](OC)CN2)cn1 [Compound 327]	< 50%
–	CCOc1cc2nn(C)cc2cc1C(=O)Nc1cnc(N2C[C@H](O)C[C@@H]2CN)nc1 [Compound 433]	< 50%
–	CCOc1cn2nc(C)cc2cc1C(=O)Nc1cnc(N2CCC(CCNC)CC2)cn1 [Compound 527]	< 50%
5.00 to 6.00	CCOc1cc2nn(C)cc2cc1C(=O)Nc1cnc(N2CCNC(C)(C)C2)cn1 [Compound 734, N-(5-(3,3-dimethylpiperazin-1-yl)pyrazin-2-yl)-6-ethoxy-2-methyl-2H-indazole-5-carboxamide hydrochloride]	–
–	CCOc1cc2nn(C)cc2cc1C(=O)Nc1cnc(N(C)C[C@H]2CCCN2)nc1 [Compound 438]	< 50%
–	CCOc1cn2nc(C)cc2cc1C(=O)Nc1cnc(N2CCNCC2)nc1 [Compound 594]	50 to 75%
5.00 to 6.00	CCOc1cc2nc(C)cn2cc1C(=O)Nc1ccc(N2CC3(CCNCC3)C2)nn1 [Compound 289]	–
–	COc1cc2nc(C)cn2cc1C(=O)Nc1ccc(N2CCNC(CF)C2)cc1F (stereo not drawn) [Compound 159, N-(2-fluoro-4-(3-(fluoromethyl)piperazin-1-yl)phenyl)-7-methoxy-2-methylimidazo[1,2-a]pyridine-6-carboxamide]	50 to 75%
> 6.00	COc1cc2nc(C)cn2cc1C(=O)Nc1ccc(N(C)C2CCNC2)cc1F (stereo not drawn) [Compound 178, N-(2-fluoro-4-(methyl(pyrrolidin-3-yl)amino)phenyl)-7-methoxy-2-methylimidazo[1,2-a]pyridine-6-carboxamide]	–
–	CCOc1cn2nc(C)cc2cc1C(=O)Nc1cnc(NC2CCC3CC2CN3)cn1 (stereo not drawn) [Compound 497]	> 75%
5.00 to 6.00	CCOc1cc2nc(C)cn2cc1C(=O)Nc1ccc(N2CCC3(CNC3)C2)nn1 [Compound 271]	–
–	CCNC1CCN(c2ccc(NC(=O)c3cn4cc(C)nc4cc3OC)c(F)c2)C1 (stereo not drawn) [Compound 168, N-(4-(3-(ethylamino)pyrrolidin-1-yl)-2-fluorophenyl)-7-methoxy-2-methylimidazo[1,2-a]pyridine-6-carboxamide]	> 75%
> 6.00	COc1cc2nc(C)cn2cc1C(=O)Nc1ccc(N2[C@H](C)CNC[C@@H]2C)cc1F [Compound 154, N-(4-((28,6R)-2,6-dimethylpiperazin-1-yl)-2-fluorophenyl)-7-methoxy-2-methylimidazo[1,2-a]pyridine-6-carboxamide]	–
5.00 to 6.00	CCOc1cc2nc(C)cn2cc1C(=O)Nc1ccc(N2CCNC(C)CC2)nn1 (stereo not drawn) [Compound 257]	–
–	CCOc1cn2nc(C)cc2cc1C(=O)Nc1cnc(NCC2CCCNC2)nc1 (stereo not drawn) [Compound 598]	< 50%
–	CCOc1cc2nn(C)cc2cc1C(=O)Nc1cnc(N2CCOC3(CCNCC3)C2)nc1 [Compound 459]	< 50%

SMILES	pIC50	activation at 5 µM
Cc1cn2cc(C(=O)Nc3ccc(N4CCN[C@@H](C)C4)nn3)c(OC3CCC3)cc2n1 [Compound 122, (S)-7-cyclobutoxy-2-methyl-N-(6-(3-methylpiperazin-1-yl)pyridazin-3-yl)imidazo[1,2-a]pyridine-6-carboxamide hydrochloride]	> 6.00	–
Cn1cc2cc(C(=O)Nc3ccc(N4CCNCC4)nn3)c(OC3CCC3)cc2n1 [Compound 207, 6-cyclobutoxy-2-methyl-N-(6-(piperazin-1-yl)pyridazin-3-yl)-2H-indazole-5-carboxamide HCl Salt]	> 6.00	–
